Reference: US10933146B2, “Cell-permeable imaging sensors and uses thereof” (Massachusetts Institute of Technology, priority 2017, dated 2021)

Assays:
[1] = MRI relaxivity of Mn-PDA contrast agents with BAPTA, with and without calcium, in buffer; assay type: physicochemical; settings: 1.1 equivalents BAPTA, equimolar Ca^2+
Protocol: To examine the potential of Mn-PDA contrast agents to function as building blocks for the sensor design of FIG. 1A, MRI measurements were performed to assess the potential of BAPTA to interact with three paramagnetic chelates (FIG. 1A, inset). Addition of 1.1 equivalents of BAPTA to two of the Mn-PDA complexes, MnL1 and MnL3, produced significant effects on the T1-weighted MRI contrast induced by these compounds in buffer. These BAPTA-dependent contrast changes were reversed by addition of equimolar Ca^2+ (FIG. 1B). This was consistent with Mn-PDA moieties competing with Ca^2+ for binding to BAPTA molecules. The changes were quantified in terms of T1 relaxivity (r1) values, which were defined as the slope of the T1 relaxation rate (1/T1=R1) vs. concentration of each paramagnetic complex.
Most MRI data were acquired on a 7 T Bruker Biospec0 system using a T1-weighted 2D gradient echo sequence (echo time, TE=5 ms, repetition time, TR=100 ms; flip angle, FA=65 degrees (°)). Longitudinal relaxivity (r1) measurements were acquired using a 2D spin echo sequence (TE=11 ms, TR=125, 200, 400, 800, 1500, 3000, and 5000 ms), with in-plane resolution of 200×200 microns squared ((μm)^2) and 2 mm slice thickness. […] Stimulus-dependent R1 changes in cells were calculated as ΔR1/R1=[R1(incubated cells)−R1(naive cells)]/R1(naive cells). […]

[2] = Optical spectra / mass spectrometry of Mn-PDA complexes incubated with BAPTA over time; assay type: physicochemical; settings: mixture with BAPTA, 0 h vs 24 h; confirmed by mass spectrometry
Excerpt: In contrast, the MnL1 mixture with BAPTA developed a strong peak for uncomplexed L1 (m/z=347.37), indicating dissociation of the MnL1 complex.

O=C1c2ccccc2[O][Mn-]23[O]c4ccccc4C(=O)[N]2c2ccccc2[N]13 [MnL1]
Calcium-dependent changes in r1 in the presence of BAPTA [1]: 105%
spectroscopic behavior in the presence of BAPTA over time (stability) [2]: sharp changes indicative of degradation
